Assay results taken from patent publication US10874743B2, “IRAK degraders and uses thereof” (Kymera Therapeutics, Inc., priority 2017, dated 2020).

Target: T1, IRAK4 (Homo sapiens, UniProt Q9NWZ3)
T1 sequence (Q9NWZ3 1-460): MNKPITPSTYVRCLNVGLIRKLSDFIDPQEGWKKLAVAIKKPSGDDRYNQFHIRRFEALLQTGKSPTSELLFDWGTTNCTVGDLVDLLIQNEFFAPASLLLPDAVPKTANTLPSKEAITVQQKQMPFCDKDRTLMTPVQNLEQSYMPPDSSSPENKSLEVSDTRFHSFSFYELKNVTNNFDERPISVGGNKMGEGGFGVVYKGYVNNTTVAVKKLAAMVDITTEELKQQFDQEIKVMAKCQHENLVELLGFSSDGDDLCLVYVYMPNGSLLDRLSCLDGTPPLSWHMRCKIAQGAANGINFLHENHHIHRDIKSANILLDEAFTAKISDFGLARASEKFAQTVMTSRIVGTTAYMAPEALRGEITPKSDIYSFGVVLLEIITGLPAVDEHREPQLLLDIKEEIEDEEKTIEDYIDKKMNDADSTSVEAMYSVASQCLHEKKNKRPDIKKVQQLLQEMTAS
Assay: OCI-LY-10 degradation assay (western blot, % IRAK4 degraded after 4 hours)
Format: cell-based
Design: endogenous in cells; host or cells: OCI-LY10
Conditions: OCI-LY10 cells; for OCI-LY10 % IRAK4 Degradation (0.01 uM) / OCI-LY10 % IRAK4 Degradation (0.1 uM) / OCI-LY10 % IRAK4 Degradation (1 uM): 4 hours; for OCI-LY10 % IRAK4 Degradation (0.01 uM): 0.01 uM compound; for OCI-LY10 % IRAK4 Degradation (0.1 uM): 0.1 uM compound; for OCI-LY10 % IRAK4 Degradation (1 uM): 1 uM compound; for OCI-LY10 % IRAK4 Degradation: IRAK4 degraded after 4 hours, western blot
In short: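 OCI-LY10 cells (RPMI-1640, 20% FBS, 55 μM 2-ME) treated with compound at 0.003-10 μM final for 4 h at 37° C, then lysed in RIPA buffer. IRAK4 level read by fluorescent western blot (20-25 μg protein) and binned as % degraded: A >50%, B >20-50%, C <20%.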

Structure (SMILES)	OCI-LY10 % IRAK4 Degradation (0.01 uM)	OCI-LY10 % IRAK4 Degradation (0.1 uM)	OCI-LY10 % IRAK4 Degradation (1 uM)	OCI-LY10 % IRAK4 Degradation
NC(=O)c1nn(-c2ccc(C(=O)NCCOCCCc3cccc4c3C(=O)N(C3CCC(=O)NC3=O)C4=O)cc2)cc1NC(=O)c1coc(-c2ccnc(NCC(F)(F)F)c2)n1 (centres unmarked) [I-234]	C (<20% degradation)	B (>20-50% degradation)	B (>20-50% degradation)	–
N#Cc1cnc2c(cnn2-c2cc(NC3CC3)c(C(=O)N[C@H]3CC[C@H](C(=O)NCCOCCNCCOCCOCCNc4cccc5c4C(=O)N(C4CCC(=O)NC4=O)C5=O)CC3)cn2)c1 (stereo partly drawn) [I-45, 6-(5-cyano-1H-pyrazolo[3,4-b]pyridin-1-yl)-4-(cyclopropylamino)-N-((1R,4R)-4-((14-((2-(2,6-dioxopiperidin-3-yl)-1,3-dioxoisoindolin-4-yl)amino)-3,9,12-trioxa-6-azatetradecyl)carbamoyl)cyclohexyl)nicotinamide]	–	–	–	C (<20% degradation)
CN(CCOCCOCCOCCOCCNc1cccc2c1C(=O)N(C1CCC(=O)NC1=O)C2=O)C(=O)[C@H]1C[C@H](NC(=O)c2cnc(-n3ncc4cc(C#N)cnc43)cc2NC2CC2)C1 (some centres unmarked) [I-39]	–	–	–	C (<20% degradation)
O=C1CCC(N2C(=O)c3cccc(NCCOCCN4CCO[C@@H](CNC(=O)c5ccc(-n6cc(NC(=O)c7coc(-c8ccnc(NCC9CC9)c8)n7)c(C(F)F)n6)cc5)C4)c3C2=O)C(=O)N1 (some centres unmarked) [I-247]	B (>20-50% degradation)	A (>50% degradation)	A (>50% degradation)	–
N#Cc1cnc2c(cnn2-c2cc(NC3CC3)c(C(=O)N[C@H]3CC[C@H](COCCOCCOCCNc4cccc5c4C(=O)N(C4CCC(=O)NC4=O)C5=O)CC3)cn2)c1 (some centres unmarked) [I-32]	–	–	–	C (<20% degradation)
O=C1CCC(N2C(=O)c3cccc(CCCOCCOCCNC(=O)c4ccc(-n5cc(NC(=O)c6coc(-c7ccnc(NCC8CC8)c7)n6)c(C(F)F)n5)cc4)c3C2=O)C(=O)N1 (centres unmarked) [I-244]	C (<20% degradation)	B (>20-50% degradation)	B (>20-50% degradation)	–
N#Cc1cnc2c(cnn2-c2cc(NC3CC3)c(C(=O)N[C@H]3CC[C@H](C(=O)NCCOCCOCCOCCOCCNc4cccc5c4C(=O)N(C4CCC(=O)NC4=O)C5=O)CC3)cn2)c1 (some centres unmarked) [I-22, 6-(5-cyano-1H-pyrazolo[3,4-b]pyridin-1-yl)-4-(cyclopropylamino)-N-((1r,4r)-4-((14-((2-(2,6-dioxopiperidin-3-yl)-1,3-dioxoisoindolin-4-yl)amino)-3,6,9,12-tetraoxatetradecyl)carbamoyl)cyclohexyl)nicotinamide]	–	–	–	C (<20% degradation)
NC(=O)c1nn(-c2ccc(CNCCOCCOCCCc3cccc4c3CN(C3CCC(=O)NC3=O)C4=O)cc2)cc1NC(=O)c1coc(-c2ccnc(NCC3CC3)c2)n1 (centres unmarked) [I-324]	B (>20-50% degradation)	A (>50% degradation)	B (>20-50% degradation)	–
CN(CCOCCCc1cccc2c1C(=O)N(C1CCC(=O)NC1=O)C2=O)C(=O)c1ccc(-n2cc(NC(=O)c3coc(-c4ccnc(NCC5CC5)c4)n3)c(C(N)=O)n2)cc1 (centres unmarked) [I-229]	C (<20% degradation)	C (<20% degradation)	C (<20% degradation)	–
O=C1CCC(N2C(=O)c3cccc(NCCOCCOCCNC(=O)[C@H]4C[C@H](NC(=O)c5cnc(Nc6ccc7cnccc7n6)cc5NC5CC5)C4)c3C2=O)C(=O)N1 (some centres unmarked) [I-26, 6-((1,6-naphthyridin-2-yl)amino)-4-(cyclopropylamino)-N-((1r,3r)-3-((2-(2-(2-((2-(2,6-dioxopiperidin-3-yl)-1,3-dioxoisoindolin-4-yl)amino)ethoxy)ethoxy)ethyl)carbamoyl)cyclobutyl)nicotinamide]	–	–	–	C (<20% degradation)
O=C1CCC(N2C(=O)c3cccc(CCCOCCNCc4ccc(-n5cc(NC(=O)c6coc(-c7ccnc(NCC8CC8)c7)n6)c(C(F)F)n5)cc4)c3C2=O)C(=O)N1 (centres unmarked) [I-367]	B (>20-50% degradation)	B (>20-50% degradation)	A (>50% degradation)	–
N#Cc1cnc2c(cnn2-c2cc(NC3CC3)c(C(=O)NCC(F)COCCNCCOCCNc3cccc4c3C(=O)N(C3CCC(=O)NC3=O)C4=O)cn2)c1 (centres unmarked) [I-94, 6-(5-Cyano-1H-pyrazolo[3,4-b]pyridin-1-yl)-4-(cyclopropylamino)-N-(3-(2-((2-(2-((2-(2,6-dioxopiperidin-3-yl)-1,3-dioxoisoindolin-4-yl)amino)ethoxy)ethyl)amino)ethoxy)-2-fluoropropyl)nicotinamide]	–	–	–	B (>20-50% degradation)
CC(C)(OCCOCCNCCOCCNc1cccc2c1C(=O)N(C1CCC(=O)NC1=O)C2=O)C(F)CNC(=O)c1cnc(-n2ncc3cc(C#N)cnc32)cc1NC1CC1 (centres unmarked) [I-131]	–	–	–	C (<20% degradation)
O=C1CCC(N2C(=O)c3cccc(CCCNCc4ccc(-n5cc(NC(=O)c6coc(-c7ccnc(NCC8CC8)c7)n6)c(C(F)F)n5)cc4)c3C2=O)C(=O)N1 (centres unmarked) [I-357]	C (<20% degradation)	C (<20% degradation)	C (<20% degradation)	–
CN(CCOCCOCCNc1cccc2c1C(=O)N(C1CCC(=O)NC1=O)C2=O)C(=O)[C@H]1C[C@H](NC(=O)c2cnc(Nc3ccc4cnccc4n3)cc2NC2CC2)C1 (some centres unmarked) [I-44, 6-((1,6-naphthyridin-2-yl)amino)-4-(cyclopropylamino)-N-((1r,3r)-3-((2-(2-(2-((2-(2,6-dioxopiperidin-3-yl)-1,3-dioxoisoindolin-4-yl)amino)ethoxy)ethoxy)ethyl)(methyl)carbamoyl)cyclobutyl)nicotinamide]	–	–	–	B (>20-50% degradation)
NC(=O)c1nn(-c2ccc(C(=O)NCCOCCOCCOCCOCCCc3ccc4c(c3)C(=O)N(C3CCC(=O)NC3=O)C4=O)cc2)cc1NC(=O)c1coc(-c2ccnc(NCC(F)(F)F)c2)n1 (centres unmarked) [I-148]	–	–	–	B (>20-50% degradation)
NC(=O)c1nn(-c2ccc(C(=O)NCCOCCOCCNc3cccc4c3C(=O)N(C3CCC(=O)NC3=O)C4=O)cc2)cc1NC(=O)c1coc(-c2ccncc2)n1 (centres unmarked) [I-140]	–	–	–	B (>20-50% degradation)
CC(C)(OCCOCCNc1cccc2c1C(=O)N(C1CCC(=O)NC1=O)C2=O)C(F)CNC(=O)c1cnc(-n2ncc3cc(C#N)cnc32)cc1NC1CC1 (centres unmarked) [I-79]	–	–	–	C (<20% degradation)
CC(OCCOCCOCCNc1cccc2c1C(=O)N(C1CCC(=O)NC1=O)C2=O)C(F)CNC(=O)c1cnc(-n2ncc3cc(C#N)cnc32)cc1NC1CC1 (centres unmarked) [I-63]	–	–	–	C (<20% degradation)
N#Cc1cnc2c(cnn2-c2cc(NC3CC3)c(C(=O)N[C@H]3CC[C@H](COCCOCCOCCOCCNC(=O)COc4cccc5c4C(=O)N(C4CCC(=O)NC4=O)C5=O)CC3)cn2)c1 (some centres unmarked) [I-18]	–	–	–	B (>20-50% degradation)
O=C1CCC(N2C(=O)c3cccc(OCC(F)CNC(=O)c4cnc(Nc5ccc6cnccc6n5)cc4NC4CC4)c3C2=O)C(=O)N1 (centres unmarked) [I-174, 4-(Cyclopropylamino)-N-[3-[2-(2,6-dioxo-3-piperidyl)-1,3-dioxo-isoindolin-4-yl]oxy-2-fluoro-propyl]-6-(1,6-naphthyridin-2-ylamino)pyridine-3-carboxamide]	–	–	–	C (<20% degradation)
O=C1CCC(N2C(=O)c3ccc(CCCNCc4ccc(-n5cc(NC(=O)c6coc(-c7ccnc(NCC(F)(F)F)c7)n6)c(C(F)F)n5)cc4)cc3C2=O)C(=O)N1 (centres unmarked) [I-375]	B (>20-50% degradation)	B (>20-50% degradation)	B (>20-50% degradation)	–
CC(C)(OCCOCCOCCOCCOCCNc1cccc2c1C(=O)N(C1CCC(=O)NC1=O)C2=O)C(F)CNC(=O)c1cnc(Nc2ncc(C#N)cc2F)cc1NC1CC1 (centres unmarked) [I-69]	–	–	–	C (<20% degradation)
N[C@@H]1CCCC[C@@H]1Nc1ccn2nc(-c3cn(-c4ccc(C(=O)NCCOCCOCCNc5cccc6c5C(=O)N(C5CCC(=O)NC5=O)C6=O)cc4)nc3C(F)F)cc2n1 (some centres unmarked) [I-142]	–	–	–	B (>20-50% degradation)
CC(OCCOCCOCCOCCOCCNc1cccc2c1C(=O)N(C1CCC(=O)NC1=O)C2=O)C(F)CNC(=O)c1cnc(-n2ncc3cc(C#N)cnc32)cc1NC1CC1 (centres unmarked) [I-66]	–	–	–	C (<20% degradation)
CN(CCCc1ccc2c(c1)C(=O)N(C1CCC(=O)NC1=O)C2=O)Cc1ccc(-n2cc(NC(=O)c3coc(-c4ccnc(NCC5CC5)c4)n3)c(C(F)F)n2)cc1 (centres unmarked) [I-369]	B (>20-50% degradation)	B (>20-50% degradation)	B (>20-50% degradation)	–
